Values of other authors as cited in US20120172333A1, “PYRROLO-PYRIDINE DERIVATIVES AS ACTIVATORS OF AMPK” (GLAXOSMITHKLINE LLC, priority 2009, published 2012).

Tested on: ob/ob and db/db mice
Settings: 8 day administration

SMILES: NC(=O)c1ncn([C@@H]2O[C@H](CO)[C@@H](O)[C@H]2O)c1N [AICAR]
- reduction of blood glucose: 35%
